Results on 18 molecules are retold here after ChEMBL document CHEMBL3992504 (Eur J Med Chem, 2017).

Molecules are shown by their SMILES. pIC50: −log10 of the molar value.

Data set [1] has as its target ALK tyrosine kinase receptor (Homo sapiens) (UniProt Q9UM73).
Description: Inhibition of EML4 fused ALK in human NCI-H3122 cells assessed as cell growth inhibition measured after 72 hrs by SRB assay
For data set [2] the target is unchanged. This is another data set of the same source.
Description: Inhibition of EML4 fused ALK (unknown origin) expressed in mouse BA/F3 cells assessed as cell growth inhibition measured after 72 hrs by SRB assay
For data set [3], the target named is ALK tyrosine kinase receptor (Homo sapiens, UniProt Q9UM73, F1174L). Briefly: Inhibition of ALK F1174L mutant (unknown origin) using peptide as substrate measured after 30 mins by fluorescence assay.
ALK tyrosine kinase receptor (Homo sapiens, UniProt Q9UM73, F1174L), sequence (Q9UM73 19-1620 F1174L limits assumed): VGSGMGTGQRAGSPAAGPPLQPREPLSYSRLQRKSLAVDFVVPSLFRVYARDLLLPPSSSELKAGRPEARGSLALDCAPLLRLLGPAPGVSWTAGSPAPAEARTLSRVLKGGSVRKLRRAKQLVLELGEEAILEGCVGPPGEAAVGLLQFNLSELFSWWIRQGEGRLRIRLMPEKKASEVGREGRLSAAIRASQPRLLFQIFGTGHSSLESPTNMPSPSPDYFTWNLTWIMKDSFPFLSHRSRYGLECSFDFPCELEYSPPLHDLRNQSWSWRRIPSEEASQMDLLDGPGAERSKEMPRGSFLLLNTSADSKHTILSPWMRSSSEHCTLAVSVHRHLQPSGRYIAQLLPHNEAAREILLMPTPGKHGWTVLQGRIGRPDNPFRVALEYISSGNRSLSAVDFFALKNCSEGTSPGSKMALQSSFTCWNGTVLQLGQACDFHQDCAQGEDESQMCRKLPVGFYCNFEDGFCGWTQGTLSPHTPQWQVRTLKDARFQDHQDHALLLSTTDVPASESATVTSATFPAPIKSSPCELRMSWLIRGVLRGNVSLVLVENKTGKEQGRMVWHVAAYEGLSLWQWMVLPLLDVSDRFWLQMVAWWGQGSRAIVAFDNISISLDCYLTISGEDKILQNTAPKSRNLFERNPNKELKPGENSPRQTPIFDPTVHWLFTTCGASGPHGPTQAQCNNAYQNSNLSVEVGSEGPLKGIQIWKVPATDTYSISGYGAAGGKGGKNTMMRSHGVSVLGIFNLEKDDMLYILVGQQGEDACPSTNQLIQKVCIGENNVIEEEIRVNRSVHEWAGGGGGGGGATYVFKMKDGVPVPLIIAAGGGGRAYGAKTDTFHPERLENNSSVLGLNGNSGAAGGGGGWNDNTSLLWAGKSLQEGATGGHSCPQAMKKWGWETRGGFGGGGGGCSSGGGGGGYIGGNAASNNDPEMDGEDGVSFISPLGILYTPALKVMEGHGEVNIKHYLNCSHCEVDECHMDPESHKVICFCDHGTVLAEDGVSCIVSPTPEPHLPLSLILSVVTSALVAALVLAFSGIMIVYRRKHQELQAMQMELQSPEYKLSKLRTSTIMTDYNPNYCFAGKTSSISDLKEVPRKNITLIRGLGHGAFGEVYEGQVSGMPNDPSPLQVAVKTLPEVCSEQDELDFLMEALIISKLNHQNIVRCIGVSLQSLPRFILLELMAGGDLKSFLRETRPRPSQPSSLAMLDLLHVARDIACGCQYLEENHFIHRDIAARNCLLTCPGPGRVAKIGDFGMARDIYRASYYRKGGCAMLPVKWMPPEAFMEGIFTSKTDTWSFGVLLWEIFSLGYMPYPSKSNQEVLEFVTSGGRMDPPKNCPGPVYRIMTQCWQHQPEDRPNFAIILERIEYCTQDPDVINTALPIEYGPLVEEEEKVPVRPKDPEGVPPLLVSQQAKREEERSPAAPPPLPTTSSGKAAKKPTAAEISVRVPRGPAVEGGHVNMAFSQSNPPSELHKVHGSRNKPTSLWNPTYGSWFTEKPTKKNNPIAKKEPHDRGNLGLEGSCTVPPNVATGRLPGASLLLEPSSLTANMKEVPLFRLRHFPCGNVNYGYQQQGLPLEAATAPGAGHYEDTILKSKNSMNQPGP
Data set [4] deals with ALK tyrosine kinase receptor (Homo sapiens, UniProt Q9UM73, G1202R). Briefly: Inhibition of ALK G1202R mutant (unknown origin) using peptide as substrate measured after 30 mins by fluorescence assay.
ALK tyrosine kinase receptor (Homo sapiens, UniProt Q9UM73, G1202R), sequence (Q9UM73 19-1620 G1202R limits assumed): as the sequence (Q9UM73 19-1620 F1174L limits assumed) above, with L1156F, G1184R counted along it
Data set [5] in a line: Inhibition of ALK T1151-L1152 insT mutant (unknown origin) using peptide as substrate measured after 30 mins by fluorescence assay. More on the design: species or system Homo sapiens.
Data set [6] has as its system Mus musculus. Briefly: Toxicity in BALB/c nu/nu mouse xenografted with human NCI-H3122 cells assessed as change in body weight at 50 mg/kg administered via oral gavage for 14 days. The note with it: in vivo, 336 h. The format is organism-based. A general note: In xenograft studies the graft and the host belong to different species.
The nature of data set [7]: AUC (infinity) in rat at 10 mg/kg administered via oral gavage by LC/MS/MS analysis. The format is ADME, organism-based. Further details: dose 10 mg/kg, time infinity, route oral. As to conditions: in vivo.
The target in data set [8] is ALK tyrosine kinase receptor (Homo sapiens, UniProt Q9UM73, G1269A). Briefly: Inhibition of ALK G1269A mutant (unknown origin) using peptide as substrate measured after 30 mins by fluorescence assay.
ALK tyrosine kinase receptor (Homo sapiens, UniProt Q9UM73, G1269A), sequence (Q9UM73 19-1620 G1269A limits assumed): as the sequence (Q9UM73 19-1620 F1174L limits assumed) above, with L1156F, G1251A counted along it
A short description of data set [9]: Cmax in rat at 10 mg/kg administered via oral gavage by LC/MS/MS analysis. The format is ADME, organism-based. Further details: dose 10 mg/kg, route oral. As to conditions: in vivo.
Data set [10] addresses ALK tyrosine kinase receptor (Homo sapiens, UniProt Q9UM73, C1156Y). Briefly: Inhibition of ALK C1156Y mutant (unknown origin) using peptide as substrate measured after 30 mins by fluorescence assay.
The nature of data set [11]: Half life in rat at 10 mg/kg administered via oral gavage by LC/MS/MS analysis. It counts as ADME, organism-based. The note with it: in vivo.
A short description of data set [12]: Tmax in rat at 10 mg/kg administered via oral gavage by LC/MS/MS analysis. It counts as ADME, organism-based. The note with it: in vivo.
Data set [13] is described as follows: AUCt in rat at 10 mg/kg administered via oral gavage by LC/MS/MS analysis. The format is ADME, organism-based. The note with it: in vivo.

ALK tyrosine kinase receptor (Homo sapiens), sequence (Q9UM73 19-1620 limits assumed): as the sequence (Q9UM73 19-1620 F1174L limits assumed) above, with L1156F counted along it
ALK tyrosine kinase receptor (Homo sapiens, UniProt Q9UM73, C1156Y), sequence (Q9UM73 19-1620 C1156Y limits assumed): as the sequence (Q9UM73 19-1620 F1174L limits assumed) above, with C1138Y, L1156F counted along it

In the case of `COc1cc(CCNC=O)c(C)cc1Nc1ncc(Cl)c(Nc2ccccc2S(=O)(=O)C(C)C)n1`, the CC50 in [1] came out at 68 nM; in [2], 60 nM.
One may read the pIC50 as −log10 of the IC50, conventionally taken in molar units. Read a low pIC50 as a large IC50. Broadly, the AUC(0-inf) is total exposure, with the tail of the curve extrapolated. Lower therefore signals less exposure. Usually Cmax stands for the maximum level reached in the sampled fluid or tissue. For orientation: half-life means the time in which the quantity being followed falls by half. What is called Tmax is the time at which the peak concentration occurs. By AUC(0-t) is commonly meant exposure summed from dosing to a finite time, without extrapolation to infinity. High values mean high exposure, low ones low exposure. For `COc1cc(CCN(C)C)c(C)cc1Nc1ncc(Cl)c(Nc2ccccc2S(=O)(=O)C(C)C)n1`, the pIC50 was 9.25 in data set [3]; 8.74 in data set [4]; 9.20 in [5]; 9.40 in data set [8]; 8.96 in [10]. Also, the Activity result in data set [6] was “Non-Toxic”. Besides, the AUC(0-inf) in [7] stood at 4250 ng·h/mL. Further, the CC50 worked out at 13 nM in data set [1] and 10 nM in data set [2]. The same molecule gave a maximum concentration (Cmax) in [9] of 263 ng/mL. Further, the half-life in data set [11] is 7.48 h. Also, the Tmax in data set [12] worked out at 4 h. Moreover, the area under the curve AUC(0-t) in [13] was found to be 3750 ng·h/mL.
Turning to `COc1cc(CCN)c(C)cc1Nc1ncc(Cl)c(Nc2ccccc2S(=O)(=O)C(C)C)n1`, the CC50 in data set [1] is 60 nM; in data set [2] it was 68 nM.
On to `COc1cc(C(C)(C)CN(C)C)c(C)cc1Nc1ncc(Cl)c(Nc2ccccc2S(=O)(=O)C(C)C)n1`, for which the CC50 in data set [1] was 26 nM; in data set [2] it was 14 nM.
For `COc1cc(C(C)(C)C#N)c(C)cc1Nc1ncc(Cl)c(Nc2ccccc2S(=O)(=O)C(C)C)n1`, in that order: 250 nM and 250 nM.
For `COc1cc(CC#N)c(C)cc1Nc1ncc(Cl)c(Nc2ccccc2S(=O)(=O)C(C)C)n1`, in that order: 74 nM and 61 nM.
In the same order, the values of `COc1cc(C(C)(C)NC=O)c(C)cc1Nc1ncc(Cl)c(Nc2ccccc2S(=O)(=O)C(C)C)n1` are 52 nM and 24 nM.
For `CNCC(C)(C)c1cc(OC)c(Nc2ncc(Cl)c(Nc3ccccc3S(=O)(=O)C(C)C)n2)cc1C`, the CC50 came to 41 nM in data set [1] and 19 nM in data set [2].
In the same order, the values of `COc1cc(CN(C)C)c(C)cc1Nc1ncc(Cl)c(Nc2ccccc2S(=O)(=O)C(C)C)n1` are 37 nM and 21 nM.
For `CNCc1cc(OC)c(Nc2ncc(Cl)c(Nc3ccccc3S(=O)(=O)C(C)C)n2)cc1C`, in that order: 25 nM and 15 nM.
In data set [5], `Cc1cc(Nc2ncc(Cl)c(Nc3ccccc3S(=O)(=O)C(C)C)n2)c(OC(C)C)cc1C1CCNCC1` [CERITINIB] showed a negative logarithm of the IC50 (pIC50) of 9.20. For the same molecule, in data set [6], the Activity entry was “Non-Toxic”. In addition, in [7], the AUC(0-inf) worked out at 2650 ng·h/mL. Moreover, the half-life in [11] is 10.3 h. Also, the time to peak (Tmax) in data set [12] was determined as 7.33 h. The molecule also gave an AUC(0-t) in data set [13] of 1380 ng·h/mL.
The molecule `COc1cc(CNC=O)c(C)cc1Nc1ncc(Cl)c(Nc2ccccc2S(=O)(=O)C(C)C)n1` showed a CC50 in data set [2] of 15 nM.
Regarding `COc1cc(C(C)(C)CNC=O)c(C)cc1Nc1ncc(Cl)c(Nc2ccccc2S(=O)(=O)C(C)C)n1`, the CC50 in data set [1] was found to be 63 nM; in data set [2], 38 nM.
For `COc1cc(C(C)(C)N(C)C)c(C)cc1Nc1ncc(Cl)c(Nc2ccccc2S(=O)(=O)C(C)C)n1`, in that order: 35 nM and 20 nM.
Turning to `COc1cc(C(C)(C)CN)c(C)cc1Nc1ncc(Cl)c(Nc2ccccc2S(=O)(=O)C(C)C)n1`, the CC50 in data set [1] turned out to be 53 nM; in [2], 36 nM.
For `CNCCc1cc(OC)c(Nc2ncc(Cl)c(Nc3ccccc3S(=O)(=O)C(C)C)n2)cc1C`, in that order: 20 nM and 13 nM.
For `COc1cc(C(C)(C)N)c(C)cc1Nc1ncc(Cl)c(Nc2ccccc2S(=O)(=O)C(C)C)n1`, in that order: 12 nM and 12 nM.
In the same order, the values of `CNC(C)(C)c1cc(OC)c(Nc2ncc(Cl)c(Nc3ccccc3S(=O)(=O)C(C)C)n2)cc1C` are 29 nM and 15 nM.
